The source of these data is the OligoGym collection.

Only the 19 paired bases of each siRNA are shown; overhangs and chemistry are not given here.
Further: test concentration or dose not given here.

In the first series the target is LMNA. Description: five studies, different assays. Conditions: siRNA.
With “sense AAGAAGGAGCUGGAGAAGA / antisense UCUUCUCCAGCUCCUUCUU”, the target inhibition was 87%.
On the same count and under the same terms, next, “sense AAGGAGCUGGAGAAGACUU / antisense AAGUCUUCUCCAGCUCCUU”: 91%.
With “sense AGAAGGAGCUGGAGAAGAC / antisense GUCUUCUCCAGCUCCUUCU”, the target inhibition turned out to be 96%.
For “sense AGCAGUAUAAGAAGGAGCU / antisense AGCUCCUUCUUAUACUGCU”, the target inhibition is 84%.
Take “sense AGCGCAAACUGGAGUCCAC / antisense GUGGACUCCAGUUUGCGCU”: the target inhibition came to 98%.
For “sense AGCUGGAGAAGACUUAUUC / antisense GAAUAAGUCUUCUCCAGCU”, the target inhibition came out at 96%.
In the case of “sense AGGAGCUGGAGAAGACUUA / antisense UAAGUCUUCUCCAGCUCCU”, the target inhibition was 98%.
In the case of “sense AGUAUAAGAAGGAGCUGGA / antisense UCCAGCUCCUUCUUAUACU”, the target inhibition was 95%.
Turning to “sense AUAAGAAGGAGCUGGAGAA / antisense UUCUCCAGCUCCUUCUUAU”, the target inhibition amounted to 96%.
On to “sense CAAGUCCAAUGAGGACCAG / antisense CUGGUCCUCAUUGGACUUG”, for which the target inhibition turned out to be 79%.
On the same count and under the same terms, the same measure for “sense CAGUAUAAGAAGGAGCUGG / antisense CCAGCUCCUUCUUAUACUG”: 95%; for “sense CCCGCUCCUACCUCCUGGG / antisense CCCAGGAGGUAGGAGCGGG”: 71%; for “sense CUGCUCUCAGUGAGAAGCG / antisense CGCUUCUCACUGAGAGCAG”: 88%.

The next series addresses PPIB. Description: five studies, different assays. Conditions: siRNA.
Take “sense AGGGGAGAUGGCACAGGAG / antisense CUCCUGUGCCAUCUCCCCU”: the target inhibition is 76.1%.
For the substance “sense AUAAUUUUGUGGCCUUAGC / antisense GCUAAGGCCACAAAAUUAU”, the target inhibition was 32.8%.
“sense AUCAAGGACUUCAUGAUCC / antisense GGAUCAUGAAGUCCUUGAU”: the target inhibition stood at 66.4%.
As for “sense AUCGUGUAAUCAAGGACUU / antisense AAGUCCUUGAUUACACGAU”, the target inhibition was determined as 86.7%.
As for “sense AUGAUCCAGGGCGGAGACU / antisense AGUCUCCGCCCUGGAUCAU”, the target inhibition came to 48.5%.
The same measure, in the same setting: the same measure for “sense AUUUGGCUACAAAAACAGC / antisense GCUGUUUUUGUAGCCAAAU”: 13.8%.
Same read-out and setting: the same measure for “sense CAAAAACAGUGGAUAAUUU / antisense AAAUUAUCCACUGUUUUUG”: 90.2%; for “sense CAAAUUCCAUCGUGUAAUC / antisense GAUUACACGAUGGAAUUUG”: 92.3%; for “sense CAAGGACUUCAUGAUCCAG / antisense CUGGAUCAUGAAGUCCUUG”: 74.4%.
Consider “sense CACCAGGGGAGAUGGCACA / antisense UGUGCCAUCUCCCCUGGUG”, for which the target inhibition is 73.8%.
The same measure, in the same setting: the same measure for “sense CAGGGCGGAGACUUCACCA / antisense UGGUGAAGUCUCCGCCCUG”: 46.8%.
For “sense CAGUGGAUAAUUUUGUGGC / antisense GCCACAAAAUUAUCCACUG”, the target inhibition worked out at 39.7%.
For the substance “sense CAUCUACGGUGAGCGCUUC / antisense GAAGCGCUCACCGUAGAUG”, the target inhibition came to 89%.
Turning to “sense CCAGGGGAGAUGGCACAGG / antisense CCUGUGCCAUCUCCCCUGG”, the target inhibition is 21.4%.
On the same count and under the same terms, the same measure for “sense CCAUCGUGUAAUCAAGGAC / antisense GUCCUUGAUUACACGAUGG”: 87.4%.
Same read-out and setting: the same measure for “sense CCCCGAUGAGAACUUCAAA / antisense UUUGAAGUUCUCAUCGGGG”: 84.7%; for “sense CCGAUGAGAACUUCAAACU / antisense AGUUUGAAGUUCUCAUCGG”: 85.1%.
“sense CCUUAGCUACAGGAGAGAA / antisense UUCUCUCCUGUAGCUAAGG”: the target inhibition was determined as 77.2%.
On to “sense CGGUGAGCGCUUCCCCGAU / antisense AUCGGGGAAGCGCUCACCG”, for which the target inhibition came out at 80.2%.
For the substance “sense CGUGUAAUCAAGGACUUCA / antisense UGAAGUCCUUGAUUACACG”, the target inhibition was determined as 88.8%.
On the same count and under the same terms, the same measure for “sense CUACAAAAACAGCAAAUUC / antisense GAAUUUGCUGUUUUUGUAG”: 71.2%; for “sense CUACAGGAGAGAAAGGAUU / antisense AAUCCUUUCUCUCCUGUAG”: 93.9%.
Regarding “sense CUUCAAACUGAAGCACUAC / antisense GUAGUGCUUCAGUUUGAAG”, the target inhibition came to 73.1%.
Take “sense CUUCAUGAUCCAGGGCGGA / antisense UCCGCCCUGGAUCAUGAAG”: the target inhibition was determined as 88.7%.
For the substance “sense GAAAGGAUUUGGCUACAAA / antisense UUUGUAGCCAAAUCCUUUC”, the target inhibition is 94.2%.
Take “sense GACUUCAUGAUCCAGGGCG / antisense CGCCCUGGAUCAUGAAGUC”: the target inhibition came to 51.2%.
Regarding “sense GAGAAAGGAUUUGGCUACA / antisense UGUAGCCAAAUCCUUUCUC”, the target inhibition was found to be 92.3%.
For the substance “sense GAGAGAAAGGAUUUGGCUA / antisense UAGCCAAAUCCUUUCUCUC”, the target inhibition was found to be 93.4%.
The same measure, in the same setting: the same measure for “sense GAGAUGGCACAGGAGGAAA / antisense UUUCCUCCUGUGCCAUCUC”: 70.5%; for “sense GAGCGCUUCCCCGAUGAGA / antisense UCUCAUCGGGGAAGCGCUC”: 86.5%.
As to “sense GAGGAAAGAGCAUCUACGG / antisense CCGUAGAUGCUCUUUCCUC”, the target inhibition was 58.4%.
For the substance “sense GAUCCAGGGCGGAGACUUC / antisense GAAGUCUCCGCCCUGGAUC”, the target inhibition amounted to 92.7%.
On to “sense GAUGAGAACUUCAAACUGA / antisense UCAGUUUGAAGUUCUCAUC”, for which the target inhibition is 89.7%.
In the case of “sense GAUGGCACAGGAGGAAAGA / antisense UCUUUCCUCCUGUGCCAUC”, the target inhibition is 84.9%.
Consider “sense GCACAGGAGGAAAGAGCAU / antisense AUGCUCUUUCCUCCUGUGC”, for which the target inhibition was found to be 90.8%.
The same measure, in the same setting: next, “sense GCGCUUCCCCGAUGAGAAC / antisense GUUCUCAUCGGGGAAGCGC”: 92.7%; “sense GCGGAGACUUCACCAGGGG / antisense CCCCUGGUGAAGUCUCCGC”: 76.6%; “sense GCUUCCCCGAUGAGAACUU / antisense AAGUUCUCAUCGGGGAAGC”: 67.8%.
As to “sense GGAAAGAGCAUCUACGGUG / antisense CACCGUAGAUGCUCUUUCC”, the target inhibition turned out to be 93.3%.
For “sense GGAGACUUCACCAGGGGAG / antisense CUCCCCUGGUGAAGUCUCC”, the target inhibition came out at 80.9%.
Take “sense GGAUAAUUUUGUGGCCUUA / antisense UAAGGCCACAAAAUUAUCC”: the target inhibition is 83.9%.
Still for that read-out and setting: the same measure for “sense GGAUUUGGCUACAAAAACA / antisense UGUUUUUGUAGCCAAAUCC”: 83.5%; for “sense GGCCUUAGCUACAGGAGAG / antisense CUCUCCUGUAGCUAAGGCC”: 94.6%; for “sense GGCUACAAAAACAGCAAAU / antisense AUUUGCUGUUUUUGUAGCC”: 77.4%.
Turning to “sense GGGAGAUGGCACAGGAGGA / antisense UCCUCCUGUGCCAUCUCCC”, the target inhibition is 80.4%.
Consider “sense GGGCGGAGACUUCACCAGG / antisense CCUGGUGAAGUCUCCGCCC”, for which the target inhibition was 89%.
“sense GUGAGCGCUUCCCCGAUGA / antisense UCAUCGGGGAAGCGCUCAC”: the target inhibition stood at 83.9%.
Regarding “sense GUGGAUAAUUUUGUGGCCU / antisense AGGCCACAAAAUUAUCCAC”, the target inhibition amounted to 55%.
Same read-out and setting: the same measure for “sense GUGGCCUUAGCUACAGGAG / antisense CUCCUGUAGCUAAGGCCAC”: 60.3%.
With “sense GUUCCAAAAACAGUGGAUA / antisense UAUCCACUGUUUUUGGAAC”, the target inhibition came out at 88.1%.
Still for that read-out and setting: next, “sense UAAUCAAGGACUUCAUGAU / antisense AUCAUGAAGUCCUUGAUUA”: 87.9%.
Same read-out and setting: the same measure for “sense UACGGUGAGCGCUUCCCCG / antisense CGGGGAAGCGCUCACCGUA”: -9.9%; for “sense UCAAACUGAAGCACUACGG / antisense CCGUAGUGCUUCAGUUUGA”: 18.1%.
Consider “sense UCAUGAUCCAGGGCGGAGA / antisense UCUCCGCCCUGGAUCAUGA”, for which the target inhibition was 92.8%.
As to “sense UCCAAAAACAGUGGAUAAU / antisense AUUAUCCACUGUUUUUGGA”, the target inhibition was 75.3%.
Still for that read-out and setting: the same measure for “sense UCCAGGGCGGAGACUUCAC / antisense GUGAAGUCUCCGCCCUGGA”: 41.8%; for “sense UCUACGGUGAGCGCUUCCC / antisense GGGAAGCGCUCACCGUAGA”: 2.8%.
As to “sense UGAGAACUUCAAACUGAAG / antisense CUUCAGUUUGAAGUUCUCA”, the target inhibition was 41.7%.
As to “sense UGGCACAGGAGGAAAGAGC / antisense GCUCUUUCCUCCUGUGCCA”, the target inhibition was 55.9%.
Turning to “sense UGUAAUCAAGGACUUCAUG / antisense CAUGAAGUCCUUGAUUACA”, the target inhibition was 63.9%.
Take “sense UUAGCUACAGGAGAGAAAG / antisense CUUUCUCUCCUGUAGCUAA”: the target inhibition was 30.7%.
For the substance “sense UUCACCAGGGGAGAUGGCA / antisense UGCCAUCUCCCCUGGUGAA”, the target inhibition came to 17.6%.
“sense UUCCAUCGUGUAAUCAAGG / antisense CCUUGAUUACACGAUGGAA”: the target inhibition came to 45.9%.
With “sense UUCCCCGAUGAGAACUUCA / antisense UGAAGUUCUCAUCGGGGAA”, the target inhibition is 83.8%.
For the substance “sense UUGGCUACAAAAACAGCAA / antisense UUGCUGUUUUUGUAGCCAA”, the target inhibition was 68%.
“sense UUGUGGCCUUAGCUACAGG / antisense CCUGUAGCUAAGGCCACAA”: the target inhibition is 16%.
“sense UUUUGUGGCCUUAGCUACA / antisense UGUAGCUAAGGCCACAAAA”: the target inhibition was found to be 52%.
